For one assay, the system named is T1, PAN3.
T1 construct: purchased ActivX Biosciences (KiNativ)
As to the kind of experiment: KiNativ profiling in H3255 cells. Type of assay: cell-based, human. Particulars: 2.5 µM, ATP. How it is done:
(§1) Cellular target engagement assays […]
(§2) H3255 cells were plated with 6.5x10^6 per condition in fresh media in 15 cm plates and treated the 80% confluency for 2 hours with DMSO or 2.5 μM of ZNL-0056. To harvest cells, plates were washed 3 times with cold PBS, then collected by scraping into 4 mL of cold PBS containing protease and phosphatase inhibitors. Cells were pelleted by centrifugation at 1350 g at 4 ℃ for 5 minutes and immediately frozen in liquid nitrogen. The frozen samples were sent to ActivX Biosciences (La Jolla, CA) for the remainder of the KiNativ profiling experiment4. […]

The next assay concerns T2, DNAPK.
T2 construct: purchased ActivX Biosciences (KiNativ)
Nature of the assay: KiNativ profiling in H3255 cells. Type of assay: cell-based, human. Conditions: 2.5 µM, ATP. The procedure: as §1, §2

For the next assay, the system named is T3, RSK1 domain1.
T3 construct: RSK1 domain1; purchased ActivX Biosciences (KiNativ)
Nature of the assay: KiNativ profiling in H3255 cells. Conditions: 2.5 µM. The class given is cell-based, human. How it is done:
as §1, §2

The next assay has as its system T4, CDK10.
T4 construct: purchased ActivX Biosciences (KiNativ)
Nature of the assay: KiNativ profiling in H3255 cells. Conditions: 2.5 µM; Lys2; DLKVSNLLMTDK
The class given is cell-based, human. The procedure: as §1, §2

In a further assay the test system is SRPK1, SRPK2. Nature of the assay: KiNativ profiling in H3255 cells. Type of assay: cell-based, human. Particulars: 2.5 µM; Lys1; FVAMKVVK
How it is done: as §1, §2

In assay [1] the test system is MSK1 domain1, MSK2 domain1. Nature of the assay: KiNativ profiling in H3255 cells. Type of assay: cell-based, human. Conditions: 2.5 µM; ATP Loop; VLGTGAYGKVFLVR
The procedure: as §1, §2

Another assay concerns TAO1, TAO3. As to the kind of experiment: KiNativ profiling in H3255 cells. The class given is cell-based, human. Conditions: 2.5 µM; Lys2; DIKAGNILLTEPGQVK
The procedure:
as §1, §2

The test system of the next assay is T5, PCTAIRE1.
T5 construct: purchased ActivX Biosciences (KiNativ)
Nature of the assay: KiNativ profiling in H3255 cells. The class given is cell-based, human. Particulars: 2.5 µM; Lys1; SKLTDNLVALKEIR
The procedure:
as §1, §2

Another assay deals with T6, NuaK2.
T6 construct: purchased ActivX Biosciences (KiNativ)
As to the kind of experiment: KiNativ profiling in H3255 cells. Conditions: 2.5 µM; Lys1; LVAIKSIR
Type of assay: cell-based, human. How it is done: as §1, §2

Another assay has as its system T7, IKKb.
T7 construct: purchased ActivX Biosciences (KiNativ)
Nature of the assay: KiNativ profiling in H3255 cells. The class given is cell-based, human. Conditions: 2.5 µM.

In the next assay the test system is T8, ILK.
T8 construct: purchased ActivX Biosciences (KiNativ)
Nature of the assay: KiNativ profiling in H3255 cells. Type of assay: cell-based, human. Particulars: 2.5 µM.

The test system of a further assay is H3255 cells. As to the kind of experiment: Cell viability assay (CellTiter-Glo). The class given is cell-based. Conditions: Homo sapiens, NCI-H3255, 72 h of treatment. How it is done:
(A) Dose–response curves for ZNL-0056 and osimertinib in H3255 cells following 72 h of treatment. Cell viability was assessed with CellTiter-Glo. Data are presented as the mean ± SEM (n = 4). Representative data from three independent experiments are shown. (B) Immunoblot assessment of the effect of ZNL-0056 on EGFR signaling pathway in H3255 cells after 6 h treatment. Representative blots from two independent experiments are shown. […] TEXT PRINTED IN THE PICTURE: (A) ZNL-0056: H3255: IC50 (nM): 471.3 | (A) Osimertinib: H3255: IC50 (nM): 27.76 […]
For infection of Ba/F3 cells, 2.5 mL of viral supernatant and 8 μg/mL polybrene was added to 2.5 million cells per well in six-well plates. […]
Cells were lysed in RIPA buffer (150 mM NaCl, 1.0% IGEPAL® CA-630, 0.5% sodium deoxycholate, 0.1% SDS, 50 mM Tris, pH 8.0) (Sigma, Cat# R0278) with protease inhibitor and phosphatase inhibitor (Roche). The protein concentrations were measured by BCA analysis (Thermo Fisher Scientific, Cat # PI23225). […]
or IRDye 680RD goat anti-Mouse IgG (LICOR Biosciences , Cat # 926-68070) secondary antibodies at room temperature for 1 hour. The membranes were detected on Odyssey CLx system. […]
treatment. Cell viability was determined by using CellTiter-Glo (Promega #G7571) according to the manufacturer’s instructions, measuring luminescence using an Envision plate-reader (PerkinElmer Inc.). […]
(ATP-based viability assays read luminescence as a measure of living cells.)

The mark [2] stands for this setting: Activation Loop, LTDFGLSKEAIDHEKK
The mark [3] stands for this setting: Protein Kinase Domain, ISMADVKFSFQCPGR

For two molecules, Inhibition and IC50 results are on record in paper PMC11212140, “Molecular Bidents with Two Electrophilic Warheads as a New Pharmacological Modality” (ACS Central Science, 2024).

The Inhibition is the drop in the measured response relative to a control, in per cent. The IC50 is the concentration that inhibits the measured activity by half.

For the molecule `C=CC(=O)Nc1cc(Nc2nccc(-c3cn(C)c4ccccc34)n2)c(OC)cc1N(C)CCN(C)C` [Osimertinib, osimertinib, reference compound], the Inhibition is 10.9% in the assay on PAN3 (IQKSSNFGYITSCYK); 3.7% in the assay with PAN3 (VMDPTKILITGK); 29.9% in the assay with DNAPK (EHPFLVKGGEDLR); 7.8% in the assay with DNAPK (KGGSWIQEINVAEK); -14.9% in the assay on RSK1 domain1 (setting [2]); -11.7% in the assay on RSK1 domain1 (Lys1, KVTRPDSGHLYAMKVLK). Also, the Inhibition is recorded as 40.2% with CDK10; 21.8% in the assay on SRPK1, SRPK2; -40.8% in [1]; 6.6% in the assay on TAO1, TAO3; -20.8% in the assay on PCTAIRE1; -2.3% in the assay on NuaK2. The Inhibition was -16.0% in the assay on IKKb (Lys1, WHNQETGEQIAIKQCR); -28.9% with IKKb (Lys2, DLKPENIVLQQGEQR); -18.1% in the assay on ILK (Lys1, WQGNDIVVKVLK); 14.1% in the assay with ILK (setting [3]). In the assay with H3255 cells, this molecule showed a half-inhibitory concentration (IC50) of 27.8 nM.
`C=CC(=O)Nc1cc(C(=O)Nc2nc3cccc(C)c3n2[C@@H]2CCCCN(C(=O)C=C)C2)cs1` [ZNL-0056]: the Inhibition in the assay with PAN3 (IQKSSNFGYITSCYK) is given as -8.7%; in the assay with PAN3 (VMDPTKILITGK), 10.8%; in the assay on DNAPK (EHPFLVKGGEDLR) it was 26.5%; in the assay with DNAPK (KGGSWIQEINVAEK), -18.3%; with RSK1 domain1 (setting [2]), 5.8%; in the assay with RSK1 domain1 (Lys1, KVTRPDSGHLYAMKVLK), -35.1%. The Inhibition in the assay on CDK10 is on record as 23.6%; with SRPK1, SRPK2 it was -8.1%; in [1], 15.3%; in the assay on TAO1, TAO3, -18.6%; in the assay on PCTAIRE1, -1.5%; with NuaK2, 1.9%. Further, the Inhibition in the assay with IKKb (Lys1, WHNQETGEQIAIKQCR) was 11.2%; with IKKb (Lys2, DLKPENIVLQQGEQR), 2.0%; in the assay on ILK (Lys1, WQGNDIVVKVLK) it was -6.7%; in the assay on ILK (setting [3]), -9.2%. Further, in the assay with H3255 cells, inhibition was half-maximal at 471 nM (IC50).
